Values quoted from earlier work, collected in publication PMC2884396 (Journal of medicinal chemistry, 2010).

What was measured:
androgen receptor (AR) = conditions: ref [24]-[27]
[1] = tested on: glucocorticoid receptor (GR); conditions: ref [24]-[27]

Compound: Cn1c(C#N)ccc1-c1ccc2c(c1)C(C)(C)OC(=S)N2 [Tanaproget (1), Tanaproget]
- affinity for AR (androgen receptor (AR)): very low affinity
- affinity for GR [1]: very low affinity
